From patent EP4813993A1, “COMPOUND, PREPARATION METHOD THEREFOR, AND USE THEREOF” (Sichuan Kelun Pharmaceutical Research Institute Co., Ltd., priority 2023, dated 2025)

Target: T1, Nav1.8 channels (Homo sapiens, UniProt Q9Y5Y9)
T1 construct: expressed in transfected cells
Assay: Manual patch-clamp, current of stably overexpressed Nav1.8 channels (resting state voltage program)
Assay type: cell-based
Conditions: for inhibition at 0.001 µM / inhibition at 0.01 µM: read-out: Inhibition rate %; for inhibition at 0.01 µM: concentration of 10 nM
Description: Experimental Example 1: Effects of test substances on current of stably overexpressed Nav1.8 channels monitored via manual patch-clamp technique
Test compounds were dissolved in dimethyl sulfoxide (DMSO).
The extracellular fluid was as follows: 140 mM NaCl, 3.5 mM KCl, 1 mM MgCl2•6H2O, 2 mM CaCl2•2H2O, 10 mM D-Glucose, 10 mM HEPES, 1.25 mM NaH2PO4•2H2O; the pH was adjusted to 7.4 with NaOH. The intracellular fluid was as follows: 50 mM CsCl, 10 mM NaCl, 10 mM HEPES, 60 mM CsF, 20 mM EGTA; the pH was adjusted to 7.2 with CsOH.
2. Experimental materials and instruments
• 1) patch-clamp amplifier: EPC 10 (HEKA) • 2) micromanipulator: MP225 (Sutter Instrument) • 3) inverted microscope: MF53 (Mshot) • 4) micropipette puller: P97 (Sutter Instrument) • 5) capillary glass tube: BF150-86-10 (Sutter Instrument)
3. Experimental procedures
• 1) After the compounds were prepared into solutions with specified concentrations, the solutions were sequentially added to the pipeline of the drug delivery system and labeled. • 2) The cell climbing coverslip was placed in the recording chamber, the appropriate cells were selected under the inverted microscope, and the position of the drug delivery tip was adjusted. • 3) A capillary glass tube was pulled into a suitable recording electrode using the micropipette puller, and then the electrode filled with the intracellular fluid was mounted in the microelectrode holder. The micromanipulator was adjusted under the inverted microscope to allow the recording electrode to contact the cell, and negative pressure was applied to the electrode to form a high-resistance seal. At this time, fast capacitance compensation was performed, and then the application of negative pressure was continued to break the cell membrane, forming a whole-cell recording mode. Finally, slow capacitance compensation was performed, and related parameters were recorded. • 4) After the cell current stabilized, administration was started. Each concentration of the drug was applied for five minutes or until the current stabilized before proceeding to monitor the next concentration. The drug solutions were administered via gravity-fed delivery, flowing through the recording chamber to act on the cells in an ascending order of concentration (from low to high). A peristaltic pump was employed for solution exchange in the recording process.
4 Test voltage program (resting state) and results
After the formation of the whole-cell seal, the cell voltage was clamped at -120 mV, followed by depolarization to 0 mV using a square-wave pulse with a duration of 50 ms to elicit Nav1.8 currents. This procedure was repeated every 20 s to monitor the maximum current induced by the square wave. After the current stabilized, the test compounds were administered. Once the response stabilized, the intensity of the current block was calculated.

T1 sequence (Q9Y5Y9 whole entry): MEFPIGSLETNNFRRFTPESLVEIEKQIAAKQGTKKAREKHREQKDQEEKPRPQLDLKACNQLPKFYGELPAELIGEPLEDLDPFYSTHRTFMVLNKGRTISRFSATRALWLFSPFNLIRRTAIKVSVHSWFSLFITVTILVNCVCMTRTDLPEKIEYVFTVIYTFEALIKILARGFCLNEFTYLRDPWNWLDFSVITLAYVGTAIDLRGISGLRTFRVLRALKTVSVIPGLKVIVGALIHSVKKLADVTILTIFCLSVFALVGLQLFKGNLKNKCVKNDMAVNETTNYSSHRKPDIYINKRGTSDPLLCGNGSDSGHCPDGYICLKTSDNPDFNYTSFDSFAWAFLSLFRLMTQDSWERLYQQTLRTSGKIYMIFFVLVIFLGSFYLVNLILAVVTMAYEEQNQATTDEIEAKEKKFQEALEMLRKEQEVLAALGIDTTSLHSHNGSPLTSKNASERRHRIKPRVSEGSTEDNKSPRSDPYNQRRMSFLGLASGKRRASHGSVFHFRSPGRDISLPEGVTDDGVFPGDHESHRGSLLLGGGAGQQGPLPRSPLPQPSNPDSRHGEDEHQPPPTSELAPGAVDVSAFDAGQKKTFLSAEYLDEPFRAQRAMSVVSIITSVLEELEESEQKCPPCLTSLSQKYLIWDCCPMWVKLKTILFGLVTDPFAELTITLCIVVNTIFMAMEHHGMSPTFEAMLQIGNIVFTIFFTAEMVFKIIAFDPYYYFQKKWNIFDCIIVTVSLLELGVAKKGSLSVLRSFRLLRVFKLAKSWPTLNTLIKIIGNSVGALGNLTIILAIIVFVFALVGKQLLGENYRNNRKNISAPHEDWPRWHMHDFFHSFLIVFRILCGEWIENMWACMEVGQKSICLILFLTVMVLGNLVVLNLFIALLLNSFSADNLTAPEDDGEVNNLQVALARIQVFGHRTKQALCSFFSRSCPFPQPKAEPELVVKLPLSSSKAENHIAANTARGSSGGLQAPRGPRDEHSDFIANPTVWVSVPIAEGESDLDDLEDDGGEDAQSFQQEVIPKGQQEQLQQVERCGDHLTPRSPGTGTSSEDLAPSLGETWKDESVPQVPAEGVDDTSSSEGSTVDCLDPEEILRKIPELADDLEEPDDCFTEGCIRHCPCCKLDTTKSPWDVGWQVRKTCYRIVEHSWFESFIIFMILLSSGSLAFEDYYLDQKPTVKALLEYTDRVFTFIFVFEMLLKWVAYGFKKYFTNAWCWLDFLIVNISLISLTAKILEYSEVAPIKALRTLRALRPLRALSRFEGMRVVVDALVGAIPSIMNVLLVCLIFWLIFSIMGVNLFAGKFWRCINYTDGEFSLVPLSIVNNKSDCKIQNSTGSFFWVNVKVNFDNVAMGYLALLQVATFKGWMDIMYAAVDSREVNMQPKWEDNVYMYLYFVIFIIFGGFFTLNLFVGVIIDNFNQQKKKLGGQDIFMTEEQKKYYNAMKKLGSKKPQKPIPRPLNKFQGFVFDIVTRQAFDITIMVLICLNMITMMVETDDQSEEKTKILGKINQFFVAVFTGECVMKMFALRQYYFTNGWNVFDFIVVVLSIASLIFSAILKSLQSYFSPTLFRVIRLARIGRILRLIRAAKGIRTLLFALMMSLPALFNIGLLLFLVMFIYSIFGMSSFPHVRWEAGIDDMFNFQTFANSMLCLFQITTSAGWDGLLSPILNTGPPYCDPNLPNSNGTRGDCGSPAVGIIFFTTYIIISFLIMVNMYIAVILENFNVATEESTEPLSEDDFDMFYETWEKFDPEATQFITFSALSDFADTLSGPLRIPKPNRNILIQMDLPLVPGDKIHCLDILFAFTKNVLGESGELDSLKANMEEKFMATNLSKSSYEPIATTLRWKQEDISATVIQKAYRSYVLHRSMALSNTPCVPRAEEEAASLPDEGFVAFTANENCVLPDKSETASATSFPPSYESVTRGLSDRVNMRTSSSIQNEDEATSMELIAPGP

| SMILES | inhibition at 0.001 µM (concentration of 1 nM) | inhibition at 0.01 µM | also measured |
| --- | --- | --- | --- |
| COc1c([C@@H]2C[C@](C)(C(F)(F)F)S[C@H]2C(=O)Nc2ccc3c(c2)B(O)NC3=O)ccc(F)c1F [Compound a-2, (2R,3S,5R)-3-(3,4-difluoro-2-methoxyphenyl)-N-(1-hydroxy-3-oxo-2,3-dihydro-1H-benzo[c][1,2]azaborol-6-yl)-5-methyl-5-(trifluoromethyl)tetrahydrothiophene-2-carboxamide] | 83.9% | – | – |
| COc1c(C2CC(C)(C(F)(F)F)SC2C(=O)Nc2cccc(S(=O)(=O)NC#N)c2)ccc(F)c1F (centres unmarked) [Compound a-9, N-(3-(N-cyanosulfamoyl)phenyl)-3-(3,4-difluoro-2-methoxyphenyl)-5-methyl-5-(trifluoromethyl)tetrahydrothiophene-2-carboxamide] | – | 85.3% | – |
| COc1c([C@@H]2C[C@](C)(C(F)(F)F)S[C@H]2C(=O)Nc2ccc(=O)[nH]n2)ccc(F)c1F [a-3-A, (2R,3S,5R)-3-(3,4-difluoro-2-methoxyphenyl)-5-methyl-N-(6-oxo-1,6-dihydropyridazin-3-yl)-5-(trifluoromethyl)tetrahydrothiophene-2-carboxamide] | – | 80.2% | – |
| COc1c([C@@H]2C[C@](C)(C(F)(F)F)S[C@H]2C(=O)Nc2ccc3c(c2)B(O)OC3=O)ccc(F)c1F [a-6-A, (2R,3S,5R)-3-(3,4-difluoro-2-methoxyphenyl)-N-(1-hydroxy-3-oxo-1,3-dihydrobenzo[c][1,2]oxaborol-6-yl)-5-methyl-5-(trifluoromethyl)tetrahydrothiophene-2-carboxamide] | – | 76.9% | – |
| COc1c(C2CC(C)(C(F)(F)F)SC2C(=O)Nc2ccnc(N=S(C)(C)=O)c2)ccc(F)c1F (centres unmarked) [a-10, 3-(3,4-difluoro-2-methoxyphenyl)-N-(2-((dimethyl(oxo)-16-sulfanylidene)amino)pyridin-4-yl)-5-methyl-5-(trifluoromethyl)tetrahydrothiophene-2-carboxamide] | – | 88% | – |
| COc1c(C2CC(C)(C(F)(F)F)SC2C(=O)Nc2ccc(F)c(N=S(C)(C)=O)c2)ccc(F)c1F (centres unmarked) [a-15] | 70.9% | – | – |
| COc1c(C2CC(C)(C(F)(F)F)SC2C(=O)Nc2ccnc(NO)c2)ccc(F)c1F (centres unmarked) [a-16, (4-(3-(3,4-difluoro-2-methoxyphenyl)-5-methyl-5-(trifluoromethyl)tetrahydrothiophene-2-carboxamido)-2-hydroxylamine)pyridine] | – | 92.3% | – |
| COc1c([C@@H]2C[C@](C)(C(F)(F)F)S[C@H]2C(=O)Nc2ccc(F)c(C/C(C#N)=C(\C)O)c2)ccc(F)c1F [a-17-A, (2R,3S,5R)-N-(3-((Z)-2-cyano-3-hydroxybut-2-enyl)-4-fluorophenyl)-3-(3,4-difluoro-2-methoxyphenyl)-5-methyl-5-(trifluoromethyl)tetrahydrothiophene-2-carboxamide] | – | 65.5% | – |
| COc1c([C@@H]2C[C@](C)(C(F)(F)F)S[C@H]2C(=O)Nc2cccc(NS(N)(=O)=O)c2)ccc(F)c1F [a-18-A, (2R,3S,5R)-3-(3,4-difluoro-2-methoxyphenyl)-5-methyl-N-(3-(sulfamoylamino)phenyl)-5-(trifluoromethyl)tetrahydrothiophene-2-carboxamide] | – | 86.3% | – |
| COc1c([C@@H]2C[C@](C)(C(F)(F)F)S[C@H]2C(=O)Nc2cn(S(=O)(=O)C3CC3)nc2C)ccc(F)c1F [a-21-A, (2R,3S,5R)-N-(1-(cyclopropylsulfonyl)-3-methyl-1H-pyrazol-4-yl)-3-(3,4-difluoro-2-methoxyphenyl)-5-methyl-5-(trifluoromethyl)tetrahydrothiophene-2-carboxamide] | 84.6% | – | – |
| COc1c(C2CC(C)(C(F)(F)F)SC2C(=O)Nc2ccc(F)c(N=S(C)(C)=O)c2)ccc(F)c1F (centres unmarked) [a-22, 3-(3,4-difluoro-2-methoxyphenyl)-N-(3-((dimethyl(oxo)-16-sulfonamido)amino)-4-fluorophenyl)-5-methyl-5-(trifluoromethyl)tetrahydrothiophene-2-carboxamide] | – | – | Inhibition rate (%) (concentration of 1 nM, 0.001 µM): 80.7% |
| COc1c([C@@H]2C[C@](C)(C(F)(F)F)S[C@H]2C(=O)Nc2ccc3c(c2)C(=O)NC3=O)ccc(F)c1F [a-23-A, (2R,3S,5R)-3-(3,4-difluoro-2-methoxyphenyl)-N-(1,3-dioxoisoindol-5-yl)-5-methyl-5-(trifluoromethyl)tetrahydrothiophene-2-carboxamide] | 56.5% | – | – |
| COc1c(C2CC(C)(C(F)(F)F)SC2C(=O)Nc2cccc(NS(=O)(=O)CCN)c2)ccc(F)c1F (centres unmarked) [a-25, N-(3-((2-aminoethyl)sulfonamido)phenyl)-3-(3,4-difluoro-2-methoxyphenyl)-5-methyl-5-(trifluoromethyl)tetrahydrothiophene-2-carboxamide] | – | 96.5% | – |
| COc1c([C@@H]2C[C@](C)(C(F)(F)F)S[C@H]2C(=O)Nc2ccc3c(c2)S(=O)(=O)NCN3)ccc(F)c1F [a-26-A, (2R,3S,5R)-3-(3,4-difluoro-2-methoxyphenyl)-N-(1,1-dioxide-3,4-dihydro-2H-benzo[e][1,2,4]thiadiazin-7-yl)-5-methyl-5-(trifluoromethyl)tetrahydrothiophene-2-carboxamide] | – | 95.6% | – |
| COc1c(C2CC(C)(C(F)(F)F)SC2C(=O)Nc2ccc3c(c2)S(=O)(=O)N=CN3)ccc(F)c1F (centres unmarked) [a-28-A, 7-(3-(3,4-difluoro-2-methoxyphenyl)-5-methyl-5-(trifluoromethyl)tetrahydrothiophene-2-carboxamido)-4H-benzo[e][1,2,4]thiadiazine-1,1-dioxide] | – | 80.6% | – |
| COc1c([C@@H]2C[C@](C)(C(F)(F)F)S[C@H]2C(=O)Nc2cccc(N=[N+]=[N-])c2)ccc(F)c1F [a-29-A, (2R,3S,5R)-N-(3-azidophenyl)-3-(3,4-difluoro-2-methoxyphenyl)-5-methyl-5-(trifluoromethyl)tetrahydrothiophene-2-carboxamide] | – | – | IC50: 0.005 nM |
| COc1c([C@@H]2C[C@](C)(C(F)(F)F)S[C@H]2C(=O)Nc2cnnc(N=[N+]=[N-])c2)ccc(F)c1F [a-30-A, (2R,3S,5R)-(4-(3-(3,4-difluoro-2-methoxyphenyl)-5-methyl-5-(trifluoromethyl)tetrahydrothiophene-2-carboxamido)-6-azido)pyridazine] | 74.5% | – | – |
| COc1c([C@@H]2C[C@](C)(C(F)(F)F)S[C@H]2C(=O)Nc2ccc(F)c(N=[N+]=[N-])c2)ccc(F)c1F [a-31-A, (2R,3S,5R)-N-(3-azido-4-fluorophenyl)-3-(3,4-difluoro-2-methoxyphenyl)-5-methyl-5-(trifluoromethyl)tetrahydrothiophene-2-carboxamide] | 81.9% | – | – |
| COc1c([C@@H]2C[C@](C)(C(F)(F)F)S[C@H]2C(=O)Nc2cccc(B3OC(=O)CN(C)CC(=O)O3)c2)ccc(F)c1F [a-35-A, (2R,3S,5R)-3-(3,4-difluoro-2-methoxyphenyl)-5-methyl-N-(3-(6-methyl-4,8-dioxo-1,3,6,2-diazaborinin-2-yl)phenyl)-5-(trifluoromethyl)tetrahydrothiophene-2-carboxamide] | – | – | IC50: 0.69 nM |
| COc1c([C@@H]2C[C@](C)(C(F)(F)F)S[C@H]2C(=O)Nc2ccc3c(c2)S(=O)(=O)NC3=O)ccc(F)c1F [a-36-A, (2R,3S,5R)-3-(3,4-difluoro-2-methoxyphenyl)-N-(1,1-dioxide-3-oxo-2,3-dihydrobenzo[d]isothiazol-6-yl)-5-methyl-5-(trifluoromethyl)tetrahydrothiophene-2-carboxamide] | – | 83.7% | – |
| COc1c([C@@H]2C[C@](C)(C(F)(F)F)S[C@H]2C(=O)Nc2cccc(OS(N)(=O)=O)c2)ccc(F)c1F [a-39-A, (3-((2R,3S,5R)-3-(3,4-difluoro-2-methoxyphenyl)-5-methyl-5-(trifluoromethyl)tetrahydrothiophene-2-carboxamido)phenyl sulfamate] | 72% | – | – |
| COc1c([C@@H]2C[C@](C)(C(F)(F)F)S[C@H]2C(=O)Nc2cccc(C3N=N3)c2)ccc(F)c1F [a-41-A, (2R,3S,5R)-N-(3-(3H-diazirin-3-yl)phenyl)-3-(3,4-difluoro-2-methoxyphenyl)-5-methyl-5-(trifluoromethyl)tetrahydrothiophene-2-carboxamide] | – | 80.6% | – |
| COc1c([C@@H]2C[C@](C)(C(F)(F)F)S[C@H]2C(=O)Nc2cccc(-c3ncon3)c2)ccc(F)c1F [a-42-A, (2R,3S,5R)-N-(3-(1,2,4-oxadiazol-3-yl)phenyl)-3-(3,4-difluoro-2-methoxyphenyl)-5-methyl-5-(trifluoromethyl)tetrahydrothiophene-2-carboxamide] | 42% | – | – |
